Data published in patent US20190151294A1, “TREATMENT OF ALCOHOLISM AND DEPRESSION AND/OR DYSPHORIC MOOD USING IBUDILAST” (MEDICINOVA, INC., priority 2016, published 2019).

Assays:
[1] = system: alcohol-preferring (P) rats; assay: Voluntary ethanol consumption in alcohol-preferring (P) rats; assay type: in vivo, rat; settings: for dose dependence of effect on ethanol intake (2-way mixed ANOVA): p<0.001
Protocol: To perform the study, adult male P and HAD1 rats were randomly assigned to receive one of the following four doses of ibudilast—0 mg/Kg, 3 mg/Kg, 6 mg/Kg, or 9 mg/Kg with eight rats assigned to each dose. Each dosing group was balanced to average a 2 h/day ethanol (15% v/v) intake. Water was concurrently available to the rats and Mazola corn oil was used as the vehicle.
The study was divided into four test phases. In the maintenance test phase rats in the treatment group were injected ibudilast subcutaneously (2 mL/kg s.c.), using standard solutions that deliver 3 mg/Kg, 6 mg/Kg or 9 mg/Kg of ibudilast, 60 min before each ethanol test session and the same dose of ibudilast was administered subcutaneously to the rats 8 hours later. Rats in the control group, however, are administered 2 mL/Kg Mazola corn oil subcutaneously. This protocol was carried out for 4 consecutive days. Following the maintenance test phase, is a two week no drug recovery phase during which rats are permitted access to ethanol and the amount of ethanol consumed by the rats was measured.
The recovery phase is followed by a two week forced ethanol abstinence phase. Following forced abstinence, the effects of ibudilast on ethanol drinking were examined by re-introducing ethanol to rats for a period of 5 consecutive days (i.e., the Relapse Test phase). Each animal received the same dose of ibudilast during maintenance and relapse test phases.

[2] = system: non-treatment-seeking individuals with AUD; assay: Phase 1b study: cue reactivity assessment (CR); assay type: in vivo, human; settings: 50 mg BID
From the text: The present study also assessed the reactivity of participants to alcohol cues at each dose of medication such that participants served as their own controls. […] The CR assessments followed well-established procedures and participants received standardized instructions about the assessment as they became acclimated to the psychophysiological monitors.
CR assessment sessions began with a 3-minute relaxation period, in which participants were asked to sit quietly and do nothing. Participants then held and smelled a glass of water for 3 minutes as a standard procedure to control for the effects of simple exposure to any potable liquid, followed by a second 3-minute relaxation period. Next, each participant held and smelled a glass of their preferred alcoholic beverage for three minutes. During each trial, the participant was asked to sniff the beverage for 5 consecutive seconds upon hearing a tone sound. Thirteen tone sounds were administered during each 3-minute block of time. […]
Following each 3 minute exposure to alcohol, each participant rated his/her urge to drink alcohol using the 11-point Likert scale (e.g., “none at all” to “extremely strong urge”). Heart rate (beats per minute; BPM) and blood pressure (systolic, diastolic, and mean arterial pressure [MAP]) were monitored continuously using a Dynamap Adult Vital Signs Monitor and values were averaged over each 3-minute trial. […]

[3] = system: non-treatment-seeking individuals with AUD; assay: Phase 1b study: safety and tolerability; assay type: in vivo, human
Protocol: A Phase 1b laboratory study was conducted to determine the safety, tolerability, and initial efficacy of ibudilast (50 mg BID) in humans as a potential AUD therapeutic agent.
To address each of the above mentioned specific aims, a randomized, crossover, double-blind, placebo-controlled study was conducted to determine the safety, tolerability, and efficacy of ibudilast in individuals with current AUD. Participants were between the ages of 21 and 65 years; met the DSM-5 diagnostic criteria for AUD; reported drinking at least 48 standard drinks in a 30-day period, during the 90 days before enrollment; and were non-treatment seeking alcohol dependent individuals who consented to an inpatient stay at a medical facility for part of the study.
Twenty four non-treatment-seeking individuals with AUD were treated with ibudilast (50 mg BID) and placebo (PBO). Participants completed two alcohol IV challenges, one after taking IBUD for 6 days and one after taking matched PBO for 6 days with a 5-10 day washout period between the study drug conditions. Ibudilast was obtained in the form of capsules containing a delayed-release 10 mg formulation. Matching capsules of the placebo also were obtained. Each participant visited the Clinical and Translational Research Center (CTRC) during on Days 1-5 of each medication condition during which they came in for daily morning visits with the study nurse to take the morning study medication under direct observation and took home the evening study medication. The participants stayed overnight on Day 6 and were discharged on Day 7. During the daily visits to the CTRC, the study nurse collected vital signs, asked about side effects in an open-ended fashion and used the Systematic Assessment for Treatment Emergent Events (SAFTEE).
The study comprised a treatment group and a placebo group and each participant completed a daily assessment questionnaire to address changes in mood, withdrawal effects, alcohol cravings, and address issues pertaining to other side effects. Thus, non-treatment seeking alcohol dependent individuals were treated with ibudilast 50 mg (5×10 mg capsules) twice daily (BID) or placebo (PBO). […] Following the intravenous alcohol challenge, participants were monitored for 24 hours and then discharged. Following a 5-10 day washout period study participants were readmitted to the CTRC where they received the opposite treatment (IBUD or PBO) for the second part of the study.
Breath alcohol content (BrAC) was monitored every 3 to 5 minutes during infusion until target BrAC's of 0.02 g·dl, 0.04 g·dl, 0.06 g·dl, and 0.08 g·dl were obtained, following which infusion rates were reduced to half the original rate to maintain stable BrAC levels during the testing phase. The following parameters were assessed prior to intravenous alcohol challenge and again at each target BrAC: (1) Biphasic Alcohol Effects Scale (BAES) to obtain a reliable and valid measure of alcohol's stimulant and sedative effects; (2) Alcohol Urge Questionnaire (AUQ)—an 8-item scale where subjects rate their craving for alcohol at the present moment, which is appropriate for examining the level of the urge to drink alcohol; (3) Alcohol Ratings Scale, which captures “liking” and “wanting” of alcohol”; (4) The Profile of Mood States (POMS; McNair 1971) which was used to record positive and negative mood states; and (5) Heart Rate and Blood Pressure levels measure at baseline and at each target level of BrAC.

CC(C)C(=O)c1c(C(C)C)nn2ccccc12 [ibudilast, Ibudilast]
reduction of ethanol intake ([1]; 5-day Relapse Test phase): about 50%
ethanol drinking relative to controls ([1]; Relapse Test phase, 6 mg/Kg and 9 mg/Kg doses, p<0.05): significantly reducing ethanol drinking relative to controls
dose dependence of effect on ethanol intake (2-way mixed ANOVA) ([1]; Relapse Test phase): dose dependent reduction in ethanol intake
24-hour food intake ([1]; especially at the 9 mg/Kg dose, effect diminished over the 5-day test phase): transitory reductions
dose dependence of effect on ethanol intake (2-way mixed ANOVA) ([1]; maintenance test phase, 0, 3, 6, 9 mg/Kg): dose dependent reduction of ethanol intake
reduction of ethanol intake ([1]; maintenance test phase, 4 days, s.c. twice daily, vs vehicle): approximately 50%
time course of reduced ethanol intake (Dose x Day interaction) ([1]; p<0.001, data not shown): most robust on the first day
cue-induced AUQ craving ([2]; day 6 alcohol cue-exposure): did not affect
positive mood during cue reactivity ([2]; p=0.07): increased positive mood
dose reductions during the course of the study ([3]; 50 mg BID): no dose reductions
drop-outs for adverse event-related reasons ([3]; 50 mg BID): No subjects dropped out
tolerability and safety ([3]; 50 mg BID oral (20 mg BID days 1-2), 6 days, humans with AUD): well tolerated and safe
heart rate or blood pressure in the context of alcohol consumption ([3]; 50 mg BID, IV alcohol, across the BrACs, p's>=0.35): did not affect
headache, reported adverse drug effect ([3]; 50 mg BID, vs 0 during placebo, p<0.05): 4 instances
